Data taken from patent US9125768B2, “Hygiene tissue comprising a microbe-inhibiting composition” (SCA HYGIENE PRODUCTS AB, priority 2006, dated 2015).

How the values were obtained:
[1] = test system: Candida albicans; assay: Test 3: growth of Candida albicans in extracellular product of Ess-1 combined with additive, visual turbidity; format: cell-based; settings: additive 50 mM combined with supernatant from Ess-1, pH adjusted to pKa of the acid, 20 hours 37° C.
Procedure: Ess-1 was grown to stationary phase in dMRSs broth (MRS broth without addition of sodium acetate). The bacterial culture was centrifuged to pellet the cells and sterile filtered using a 0,22 μm filter (MILLIPORE filter, Bedford, USA) whereupon the supernatant comprising the extracellular product was obtained. […] Wells containing strong growth of Candida in pure dMRSs-broth was graduated as five, while wells with no visual growth were graduated as zero.

[2] = test system: Candida albicans (C. albicans 702); assay: Test 1: growth of Candida albicans in extracellular product of LB 931 with additives, micro titre plate, visual turbidity; format: cell-based; settings: additive 50 mM in combination with extracellular product of LB 931, pH 3.4±0.2, 37° C. 24 hrs
Procedure: The purpose of this test was to determine whether selected additives affect the growth of Candida albicans and if an improved growth inhibition can be achieved when they are added to the extracellular products of Lactobacillus plantarum, LB 931. The additives used in this test were ascorbic acid, citric acid, phenylalanine, acetic acid, propionic acid and sodium propionate.
A clinical isolate of Candida albicans (designated C. albicans 702) was used as test strain. It was isolated from the vagina of a person with vaginal candidiasis.
As control pure dMRSs broth (MRS broth without addition of sodium acetate) was used. A specified volume was transferred to wells of a micro titre plate and was let to air dry (45° C. minimum of 20 hrs).
Cultures of LB 931 grown in dMRSs broth were centrifuged to pellet the cells and sterile filtered using a 0,22 μm filter (MILLIPORE filter, Bedford, USA) in order to obtain the LB 931 supernatant com prising the LB 931 extracell War product. […]
The test was blinded so that there could be no preconceived opinions colouring the results. The inhibition of Candida was evaluated and graduated, by two persons using a template, on a scale from five to zero based on visual observations of turbidity with a calculated mean value being presented. […]

SMILES	inhibition of Candida albicans [1]	growth inhibiting effect on Candida (growth graded five to zero by turbidity) [2]
O=C1O[C@H]([C@@H](O)CO)C(O)=C1O [ascorbic acid]	increased inhibition	–
CCC(=O)O [propionic acid]	–	no growth at all
